Test results reported in patent publication US20040197411A1, “Acceptably non-hygroscopic formulation intermediate comprising a hygroscopic drug” (priority 2002, published 2004).

Test: Moisture sorption analysis by dynamic vapor sorption (DVS)
Format: physicochemical
Details: for hygroscopicity and deliquescence: general statement, conditions not given
Experimental: Compound 1 was prepared according to processes described in WO 01/72703. A sample of Compound 1 in substantially dry, amorphous form was subjected to moisture sorption analysis. Dynamic vapor sorption (DVS) was used to determine mass increase (relative to dry mass) was monitored over an adsorption range of 10-70% relative humidity (RH) in increments of 10%. As shown by the moisture sorption isotherm represented in FIG. 1, Compound 1 is hygroscopic.

Compound | hygroscopicity and deliquescence | moisture sorption isotherm (mass increase relative to dry mass) (substantially dry, amorphous form, 10-70% RH in increments of 10%, FIG. 1)
CC(=N)NCCSC[C@](C)(N)C(=O)O.Cl.Cl [Compound 1, S-[2-[(1-iminoethyl)amino]ethyl]-2-methyl-L-cysteine dihydrochloride] | extremely hygroscopic and deliquescent | hygroscopic
CC(=N)NCCSC[C@](C)(N)C(=O)O [S-[2-[(1-iminoethyl)amino]ethyl]-2-methyl-L-cysteine] | extremely hygroscopic and deliquescent | 
